Test: Dielectric measurement (e′, e″, Q value) by Slotted Line Method at 27 MHz
Format: physicochemical
Conditions: raw material
From the text: The property of permittivity is the measure of the resistance to forming an electric field. For purposes of comparing materials in air, it is often convenient to describe the permittivity of material in air where the permittivity is more specifically called “relative permittivity” or ? r. This is a complex number represented by the following equation: ? r=e'-je'' where e' (the real portion of the complex number) is the dielectric constant (energy storage) and e'' (the imaginary portion of the complex number) is the dielectric loss or dissipation factor (energy dissipated as heat). The ratio of dielectric loss (e'') over the dielectric constant (e') is called the loss tangent (tan δ) or power factor. […] The Q value is affected by physical and chemical properties such as density (porosity/particle size), moisture (conductivity), temperature, and molecular polarizability. The measurements obtained by this method can eliminate the need to measure and evaluate these properties independently. […] The Q values were measured using a HP […] Slotted Line as sample holder (carriage removed) connected to Agilent […] to ports A and B (transmission mode). […] This process is referred to as the “Slotted Line Method.” Unless otherwise stated, the Slotted line method was used for the calculation of e', e'', and Q value herein with the frequency range set to 26-28 MHz (31 points resolution) and values of e' and e'' were recorded from the 27 MHz data point.

SMILES: OC[C@@H](O)[C@@H](O[C@H]1O[C@H](CO)[C@@H](O)[C@H](O)[C@H]1O)[C@H](O)[C@@H](O)CO [Maltitol (SweetPearl DC300), Maltitol]
- Loss Tangent: 0.0022
- e′: 1.6214
- e″: 0.0035
